Data on ten compounds can be found in paper PMC8408276, “Distinct neuropeptide-receptor modules regulate a sex-specific behavioral response to a pheromone” (Communications Biology, 2021).

For experiment [1], the target named is T1, NPR-10B (Caenorhabditis elegans, UniProt Q6EUU1).
T1 sequence (Q6EUU1 1-362): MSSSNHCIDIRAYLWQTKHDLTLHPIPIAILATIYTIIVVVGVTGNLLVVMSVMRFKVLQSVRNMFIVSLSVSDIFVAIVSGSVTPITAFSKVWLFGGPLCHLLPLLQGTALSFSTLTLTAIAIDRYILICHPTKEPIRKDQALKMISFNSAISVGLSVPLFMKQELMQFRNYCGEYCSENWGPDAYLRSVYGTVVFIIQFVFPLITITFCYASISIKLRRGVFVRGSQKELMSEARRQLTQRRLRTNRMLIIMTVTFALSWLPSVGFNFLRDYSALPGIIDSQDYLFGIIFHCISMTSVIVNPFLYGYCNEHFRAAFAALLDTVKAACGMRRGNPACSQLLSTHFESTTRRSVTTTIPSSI
As to the kind of experiment: In vitro GPCR activation assay (CHO-K1, aequorin, Gα16), NPR-10B. Type of experiment: cell-based, C. elegans. The conditions noted are these: for EC50: NPR-10B in CHO-K1 cells with mtAEQ aequorin and human Gα16, peptide 1 pM to 10 µM, n ≥ 6, Fig. 4i. The protocol: (§1) The GPCR activation assay was performed as previously described[66],[74]. Briefly, npr-10 and frpr-16 cDNAs were cloned into the pcDNA3.1 TOPO expression vector (Thermo Fisher Scientific). A CHO-K1 cell line (PerkinElmer, ES-000-A24) stably expressing apo-aequorin targeted to the mitochondria (mtAEQ) and human Gα16 was transiently transfected with the receptor cDNA construct or the empty pcDNA3.1 vector using Lipofectamine LTX and Plus reagent (Thermo Fisher Scientific). Cells were shifted to 28 °C one day later and allowed to incubate for 24 h. On the day of the assay, cells were collected in BSA medium (DMEM/Ham’s F12 with 15 mM HEPES, without phenol red, 0.1% BSA) and loaded with […] coelenterazine h (Thermo Fisher Scientific) for 4 h at room temperature. The incubated cells were then added to synthetic peptides dissolved in DMEM/BSA, and luminescence was measured for 30 s at 496 nm using a Mithras LB940 (Berthold Technologies) or MicroBeta LumiJet luminometer (PerkinElmer). After 30 s of readout, 0.1% triton X-100 was added to lyse the cells, resulting in a maximal calcium response that was measured for 10 s. After initial screening, concentration-response curves were constructed for HPLC-purified FLP-3 peptides by subjecting the transfected cells to each peptide in a concentration range from 1 pM to 10 µM. Cells transfected with an empty vector were used as a negative control. Assays were performed in triplicate on at least two independent days. Concentration-response curves were fitted using Prism v. 7 (nonlinear regression analysis with a sigmoidal concentration-response equation).

Experiment [2] concerns the target T2, FRPR-16 (Caenorhabditis elegans, UniProt Q21957).
T2 sequence (Q21957 1-340): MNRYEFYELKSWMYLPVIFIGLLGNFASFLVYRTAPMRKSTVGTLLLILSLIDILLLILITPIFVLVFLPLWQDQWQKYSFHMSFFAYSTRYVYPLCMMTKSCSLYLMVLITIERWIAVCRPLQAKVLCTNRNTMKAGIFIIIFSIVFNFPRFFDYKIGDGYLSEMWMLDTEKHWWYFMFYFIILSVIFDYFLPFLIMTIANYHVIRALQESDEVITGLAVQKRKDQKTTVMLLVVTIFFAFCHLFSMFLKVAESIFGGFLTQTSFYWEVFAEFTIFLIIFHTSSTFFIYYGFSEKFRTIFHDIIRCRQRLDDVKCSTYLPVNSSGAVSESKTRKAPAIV
As to the kind of experiment: In vitro GPCR activation assay (CHO-K1, aequorin, Gα16), FRPR-16. Type of experiment: cell-based, C. elegans. The following applies: for EC50: FRPR-16 in CHO-K1 cells with mtAEQ aequorin and human Gα16, peptide 1 pM to 10 µM, n ≥ 6, Fig. 4i. The protocol: as §1

Experiment [3] concerns C. elegans. As to the kind of experiment: Single worm attraction assay (SWAA). Type of experiment: in vivo. The following applies: flp-3 lof males; Supplementary Fig. 5. The protocol: We adapted the spot retention assay (Supplementary Fig. 1)[28],[38] to allow for better characterization of individual worm behavior and robust interrogation of attraction to small molecules. We first compared the attractiveness of 1 µM ascr#8 (Fig. 1a, inset) across multiple strains of C. elegans (the wild-type N2 strain, the high incidence of male him-5 and him-8 strains, and the chemosensory cilia defective osm-3), using our novel behavioral assay, the single worm attraction assay (SWAA) (Fig. 1a). In this assay, individual animals are placed directly into the spot of the ascaroside cue (A) while simultaneously removing any potential of male–male contact. A spatial control is included throughout the assay plate to allow us to investigate any innate differences in the number of visits to the well center, or the time spent therein, of which we have only found one strain to date with differences in male dwell time (Fig. 1a). Likewise, a vehicle control (V) is also included, to account of any changes in dwell time that are driven by the components of the vehicle. The outer forty wells of a 48-well suspension culture plate (Olympus Plastics, Cat #: 25-103) were seeded with 200 µL of standard NGM agar. To prepare the plates for the assay, they were acclimated to room temperature, at which point each well was seeded with 65 µL of OP50 E. coli. […] A single worm was placed in each of the 10 wells to be assayed, and the plate was transferred to a light source and camera and recorded for 15 m. […] Raw dwell time values were calculated by subtracting the time a worm exited the cue (center of the well in spatial controls), from the time it entered, as in the SRA[14]. This was determined per visit, and the average dwell time was calculated for each animal in the quadrant. Averages of the four-quadrant means were determined per plate, and a minimum of five plates were assayed per strain/condition. The mean raw dwell time across five plates was calculated and used for statistical analyses and graphical display. […] The number of visits per-worm was calculated, and the average visit count determined per quadrant, and per plate. The average visit count across five plates was calculated and used for statistical analyses and graphical display. An “attractive visit” was first determined for each plate as any visit greater than two standard deviations above the mean dwell time within the vehicle control for that plate. Any individual visit meeting this threshold was scored as a “1”, and any below was scored a “0”. The percent visits per-worm that were attractive was determined, and the average of each quadrant taken. […] The average percent of attractive visits across five plates was calculated and used for statistical analyses and graphical display. […]

Experiment [4] has as its system NPR-10A. As to the kind of experiment: In vitro GPCR activation assay (CHO-K1, aequorin, Gα16), NPR-10A. The following applies: CHO-K1 aequorin/Gα16 calcium response; Supplementary Fig. 10a. Type of experiment: cell-based, C. elegans. The procedure:
This peptide contains an R-to-K mutation within the C-terminal motif, which may explain the lack of receptor activation.
as §1, with “After initial screening, concentration-response curves were constructed for HPLC-purified FLP-3 peptides by subjecting the transfected cells to each peptide in a concentration range from 1 pM to 10 µM. Cells transfected with an empty vector were used as a negative control. Assays were performed in triplicate on at least two independent days. Concentration-response curves were fitted using Prism v. 7 (nonlinear regression analysis with a sigmoidal concentration-response equation).” left out

Where [5] appears, read: CHO-K1 aequorin/Gα16 calcium response.

“Also recorded” adds a separate entry of the source. Where a SMILES comes first, the peptide text is derived from it. Where no end group is shown, it is not given here.

As a reminder, the EC50 is the midpoint of the concentration-response curve. Lower therefore signals an effect from little substance. With `CSCC[C@H](NC(=O)[C@@H](NC(=O)CNC(=O)[C@H](CC(C)C)NC(=O)[C@@H]1CCCN1C(=O)[C@@H](N)CO)[C@@H](C)O)C(=O)N[C@@H](CCCNC(=N)N)C(=O)N[C@@H](Cc1ccccc1)C(N)=O` [FLP-3-1, SPLGTMRFamide] (H-SPLGTMRF-NH2), the EC50 was 262 nM in experiment [1] (luminescence 30 s) and 7.4 nM in experiment [2] (luminescence 30 s).

Regarding `CSCC[C@H](NC(=O)[C@@H](NC(=O)CNC(=O)[C@H](CC(C)C)NC(=O)[C@@H]1CCCN1C(=O)[C@@H](N)[C@@H](C)O)[C@@H](C)O)C(=O)N[C@@H](CCCNC(=N)N)C(=O)N[C@@H](Cc1ccccc1)C(N)=O` [FLP-3-2, TPLGTMRFamide] (H-TPLGTMRF-NH2), the EC50 in experiment [1] (luminescence 30 s) is 367 nM; in experiment [2] (luminescence 30 s), 31.7 nM.

Turning to `CSCC[C@H](NC(=O)[C@@H](NC(=O)CNC(=O)[C@H](CC(C)C)NC(=O)[C@@H]1CCCN1C(=O)[C@H](CCC(=O)O)NC(=O)[C@H](CCC(=O)O)NC(=O)[C@H](C)NC(=O)[C@@H](N)CCC(=O)O)[C@@H](C)O)C(=O)N[C@@H](CCCNC(=N)N)C(=O)N[C@@H](Cc1ccccc1)C(N)=O` [FLP-3-3, EAEEPLGTMRFamide] (H-EAEEPLGTMRF-NH2), the EC50 in experiment [1] (luminescence 30 s) was found to be 867 nM; in experiment [2] (luminescence 30 s) it was 288 nM.

As to `CSCC[C@H](NC(=O)[C@@H](NC(=O)CNC(=O)[C@H](CC(C)C)NC(=O)[C@@H]1CCCN1C(=O)[C@@H](N)CC(N)=O)[C@@H](C)O)C(=O)N[C@@H](CCCNC(=N)N)C(=O)N[C@@H](Cc1ccccc1)C(N)=O` [FLP-3-4, NPLGTMRFamide] (H-NPLGTMRF-NH2), the EC50 in experiment [1] (luminescence 30 s) was 427 nM; in experiment [2] (luminescence 30 s), 10.7 nM.

For the compound `CSCC[C@H](NC(=O)[C@@H](NC(=O)CNC(=O)[C@H](Cc1ccccc1)NC(=O)[C@H](CC(C)C)NC(=O)[C@H](C)NC(=O)[C@H](CC(=O)O)NC(=O)[C@H](CCC(=O)O)NC(=O)[C@H](CO)NC(=O)[C@H](C)N)[C@@H](C)O)C(=O)N[C@@H](CCCNC(=N)N)C(=O)N[C@@H](Cc1ccccc1)C(N)=O` [FLP-3-5, ASEDALFGTMRFamide] (H-ASEDALFGTMRF-NH2), the EC50 was found to be 1100 nM in experiment [1] and 72.1 nM in experiment [2] (luminescence 30 s).

Consider `CSCC[C@H](NC(=O)[C@@H](NC(=O)CNC(=O)[C@H](Cc1ccccc1)NC(=O)[C@@H]1CCCN1C(=O)[C@H](CCC(=O)O)NC(=O)[C@H](C)NC(=O)[C@@H](N)CO)[C@@H](C)O)C(=O)N[C@@H](CCCNC(=N)N)C(=O)N[C@@H](Cc1ccccc1)C(N)=O` [FLP-3-7, SAEPFGTMRFamide] (H-SAEPFGTMRF-NH2), for which the concentration for a half-maximal effect (EC50) in experiment [1] (luminescence 30 s) was found to be 439 nM; in experiment [2] (luminescence 30 s), 39.5 nM.

The compound `CSCC[C@H](NC(=O)[C@@H](NC(=O)CNC(=O)[C@H](Cc1ccccc1)NC(=O)[C@@H]1CCCN1C(=O)[C@H](C)NC(=O)[C@H](CO)NC(=O)[C@H](CC(=O)O)NC(=O)[C@H](CC(=O)O)NC(=O)[C@H](C)NC(=O)[C@@H](N)CO)[C@@H](C)O)C(=O)N[C@@H](CCCNC(=N)N)C(=O)N[C@@H](Cc1ccccc1)C(N)=O` [FLP-3-8, SADDSAPFGTMRFamide] (H-SADDSAPFGTMRF-NH2) showed an EC50 in experiment [2] of 1600 nM. This counts as single-digit micromolar.

Turning to `CSCC[C@H](NC(=O)[C@@H](NC(=O)CNC(=O)[C@H](Cc1ccccc1)NC(=O)[C@@H]1CCCN1C(=O)[C@@H](NC(=O)[C@H](CC(=O)O)NC(=O)[C@H](CC(N)=O)NC(=O)[C@H](CCC(=O)O)NC(=O)[C@@H]1CCCN1C(=O)[C@@H](N)CC(N)=O)[C@@H](C)O)[C@@H](C)O)C(=O)N[C@@H](CCCNC(=N)N)C(=O)N[C@@H](Cc1ccccc1)C(N)=O` [FLP-3-9, NPENDTPFGTMRFamide] (H-NPENDTPFGTMRF-NH2), the values for the EC50 in experiment [1] (luminescence 30 s) and in experiment [2] (luminescence 30 s) were 760 nM and 88.3 nM, respectively.

For `C[C@H](CCCC/C=C/C(=O)O)O[C@@H]1O[C@@H](C)[C@H](O)C[C@H]1O` [ascr#3], in experiment [3], the “Attractive response, in words” value is reported as “no defect”.

As for “EDGNAPFGTMKF-NH2 [FLP-3-6, flp-3 encoded peptide with R-to-K mutation within the C-terminal motif]”, the “Activation of NPR-10A, in words” value in experiment [4] is recorded as “activated no receptors”. Besides, the “Activation of NPR-10 (NPR-10B), in words” value in experiment [1] (setting [5]) is reported as “activated no receptors; also recorded: did not activate either receptor”. The “Activation of FRPR-16, in words” value in experiment [2] (setting [5]) was “activated no receptors; also recorded: did not activate either receptor”.
